Results as given in US9381200B2, “Nitrogen containing compounds” (WOCKHARDT LIMITED, priority 2011, dated 2016).
In brackets after ≈: the same amount, converted by molar mass. Where two headings read alike, the source gives them in different places.

Assays:
Type in all cases: cell-based
[1] = system: E. coli M 50; test: Antibacterial activity (MIC), agar dilution per CLSI; conditions: Escherichia coli, read-out: MIC
How it was run: (§1)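 Agar dilution per CLSI M100-S20: diluted overnight cultures inoculated onto agar containing doubling dilutions of compound. Growth scored after 16–20 h at 35±2 °C in ambient air. MIC reported in mcg/ml.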

[2] = system: E. Coli B 89; test: Antibacterial activity (MIC) against MDR Gram negative strains; conditions: Escherichia coli; Table 4; E. Coli B 89, Class C ESBL, MDR; read-out: MIC
How it was run: as §1

[3] = system: E. Coli H 484; test: as above; conditions: Escherichia coli; Table 4; E. Coli H 484, Class C ESBL, MDR; read-out: MIC
How it was run: as §1

[4] = system: E. Coli M 3; test: as above; conditions: Escherichia coli; Table 5; E. Coli M 3, Class B ESBL, MDR; read-out: MIC
How it was run: as §1

[5] = system: E. Coli M 44; test: as above; conditions: Escherichia coli; Table 5; E. Coli M 44, Class B ESBL, MDR; read-out: MIC
How it was run: as §1

[6] = system: E. Coli W 13351; test: as above; conditions: Escherichia coli; Table 4; E. Coli W 13351, Class A ESBL, MDR; read-out: MIC
How it was run: as §1

[7] = system: E. Coli W 13352; test: as above; conditions: Escherichia coli; Table 4; E. Coli W 13352, Class A ESBL, MDR; read-out: MIC
How it was run: as §1

[8] = system: E. Coli W 13353; test: as above; conditions: Escherichia coli; Table 4; E. Coli W 13353, Class A ESBL, MDR; read-out: MIC
How it was run: as §1

[9] = system: K penumoniae H 521; test: as above; conditions: Table 4; K penumoniae H 521, KPC ESBL, MDR; read-out: MIC
How it was run: as §1

[10] = system: K penumoniae H 523; test: as above; conditions: Table 4; K penumoniae H 523, KPC ESBL, MDR; read-out: MIC
How it was run: as §1

[11] = system: K penumoniae H 525; test: as above; conditions: Table 4; K penumoniae H 525, KPC ESBL, MDR; read-out: MIC
How it was run: as §1

[12] = system: K. penumoniae S 48; test: as above; conditions: Table 5; K. penumoniae S 48, Class B ESBL, MDR; read-out: MIC
How it was run: as §1

[13] = system: P. aeruginosa ATCC 27853; test: as above; conditions: Pseudomonas aeruginosa, ATCC27853; Table 5; P. aeruginosa ATCC 27853; read-out: MIC
How it was run: as §1

[14] = system: P. aeruginosa Ps 21; test: as above; conditions: Pseudomonas aeruginosa, PS21; Table 5; P. aeruginosa Ps 21; read-out: MIC
How it was run: as §1

[15] = system: P. aeruginosa Ps 32; test: as above; conditions: Pseudomonas aeruginosa, PS32; Table 5; P. aeruginosa Ps 32; read-out: MIC
How it was run: as §1

[16] = system: K. pneumoniae ATCC 700603; test: Antibacterial activity of Ceftazidime in presence of compounds of the invention (MIC); conditions: Klebsiella pneumoniae, ATCC700603; Table 6; K. pneumoniae ATCC 700603 (ESBL type: Class A); Ceftazidime alone or with compound at fixed 4 mcg/ml as named in the composition
Experimental: (§2) The biological activity of representative compounds according to the invention against various bacterial strains was investigated. In a typical study, overnight grown bacterial cultures were diluted appropriately and inoculated on the agar media containing doubling dilutions of the test compounds. Observation for growth or no growth was performed after 16-20 hours of incubation at 35±2° C. in ambient air. The overall procedure was performed as per Clinical and Laboratory Standards Institute (CLSI) recommendations (Clinical and Laboratory Standards Institute (CLSI), Performance Standards for Antimicrobial Susceptibility Testing, 20th Informational Supplement, M 100-S20, Volume 30, No. 1, 2010).
(§3) The antibacterial activity of representative compounds according to the invention was also investigated in combination with at least one antibacterial agent using the above study protocol and the results are given Table 6.

[17] = system: P. vulgaris S-137B; test: as above; conditions: Proteus vulgaris, S137B; Table 6; P. vulgaris S-137B (ESBL type: Class C); Ceftazidime alone or with compound at fixed 4 mcg/ml as named in the composition
Experimental: as §2, §3

[18] = system: E. coli 7 MP; test: Antibacterial activity (MIC), agar dilution per CLSI; conditions: Escherichia coli, Table 3, E. coli 7 MP expressing ESBL, read-out: MIC
How it was run: (§4)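 Agar dilution MIC per CLSI: overnight cultures diluted and inoculated onto agar containing doubling dilutions of compound. Growth/no growth read after 16-20 h at 35±2° C in ambient air. Strains express ESBL.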

[19] = system: E. coli NCTC 13351; test: as above; conditions: Escherichia coli, NCTC13351, Table 3, E. coli NCTC 13351 expressing ESBL, 16-20 hours, 35±2° C., read-out: MIC
How it was run: as §4

[20] = system: A. baumannii 1460648; test: Antibacterial activity of sulbactam / Cefepime combinations with a compound of the invention (MIC); conditions: Acinetobacter baumannii; footnotes of Tables 7 and 8; A. baumannii 1460648; substance used alone; read-out: Standalone MIC
Experimental: as §2

[21] = system: A. baumannii G-165; test: as above; conditions: Acinetobacter baumannii, G165; footnotes of Tables 7 and 8; A. baumannii G-165; substance used alone; read-out: Standalone MIC
Experimental: as §2

[22] = system: A. baumannii J-143; test: as above; conditions: Acinetobacter baumannii, J143; footnotes of Tables 7 and 8; A. baumannii J-143; substance used alone; read-out: Standalone MIC
Experimental: as §2

[23] = system: A. baumannii S-334; test: as above; conditions: Acinetobacter baumannii, S334; footnotes of Tables 7 and 8; A. baumannii S-334; substance used alone; read-out: Standalone MIC
Experimental: as §2

[24] = M50, Table 4, E. Coli M 50, Class C ESBL, MDR
[25] = M50, Table 3, E. coli M 50 expressing ESBL, agar dilution

SMILES: CC(C)(O/N=C(\C(=O)N[C@@H]1C(=O)N2C(C(=O)[O-])=C(C[n+]3ccccc3)CS[C@H]12)c1csc(N)n1)C(=O)O [Ceftazidime, reference compound]
- MIC [1, 24]: > 32 µg/mL
- MIC [2]: > 32 µg/mL
- MIC [3]: > 32 µg/mL
- MIC [4]: > 32 µg/mL
- MIC [5]: > 32 µg/mL
- MIC [6]: 32 µg/mL (≈ 58.5 µM)
- MIC [7]: > 32 µg/mL
- MIC [8]: 32 µg/mL (≈ 58.5 µM)
- MIC [9]: > 32 µg/mL
- MIC [10]: > 32 µg/mL
- MIC [11]: > 32 µg/mL
- MIC [12]: > 32 µg/mL
- MIC [13]: 1 µg/mL (≈ 1.83 µM)
- MIC [14]: > 32 µg/mL
- MIC [15]: > 32 µg/mL
- MIC [16]: > 32 µg/mL
- MIC [17]: > 32 µg/mL

SMILES: O=C(NNC(=O)[C@@H]1CC[C@@H]2CN1C(=O)N2OS(=O)(=O)O)[C@@H]1CCCNC1 [Example 2, trans-sulfuric acid mono-[2-(N′—[(R)-piperidin-3-carbonyl]-hydrazinocarbonyl)-7-oxo-1,6-diaza-bicyclo[3.2.1]oct-6-yl]ester]
- MIC [18]: 1 µg/mL (≈ 2.55 µM)
- MIC [19]: 0.25 µg/mL (≈ 0.639 µM)
- MIC [1, 25]: 0.25 µg/mL (≈ 0.639 µM)
- MIC [1, 24]: 0.25 µg/mL (≈ 0.639 µM)
- MIC [2]: 0.25 µg/mL (≈ 0.639 µM)
- MIC [3]: 0.12 µg/mL (≈ 0.307 µM)
- MIC [4]: 2 µg/mL (≈ 5.11 µM)
- MIC [5]: 0.5 µg/mL (≈ 1.28 µM)
- MIC [6]: 0.25 µg/mL (≈ 0.639 µM)
- MIC [7]: 0.25 µg/mL (≈ 0.639 µM)
- MIC [8]: 0.12 µg/mL (≈ 0.307 µM)
- MIC [9]: 0.5 µg/mL (≈ 1.28 µM)
- MIC [10]: 1 µg/mL (≈ 2.55 µM)
- MIC [11]: 0.5 µg/mL (≈ 1.28 µM)
- MIC [12]: 0.5 µg/mL (≈ 1.28 µM)
- MIC [13]: 8 µg/mL (≈ 20.4 µM)
- MIC [14]: 8 µg/mL (≈ 20.4 µM)
- MIC [15]: 8 µg/mL (≈ 20.4 µM)
- MIC [20]: > 32 µg/mL
- MIC [21]: > 32 µg/mL
- MIC [22]: > 32 µg/mL
- MIC [23]: > 32 µg/mL

SMILES: O=C(NNC(=O)[C@@H]1CC[C@@H]2CN1C(=O)N2OS(=O)(=O)O)[C@@H]1CCNC1 [Example 3, trans-sulfuric acid mono-[2-(N′—[(R)-pyrrolidin-3-carbonyl]-hydrazinocarbonyl)-7-oxo-1,6-diaza-bicyclo[3.2.1]oct-6-yl]ester]
- MIC [18]: 1 µg/mL (≈ 2.65 µM)
- MIC [19]: 0.25 µg/mL (≈ 0.662 µM)
- MIC [1, 25]: 0.25 µg/mL (≈ 0.662 µM)
- MIC [1, 24]: 0.5 µg/mL (≈ 1.32 µM)
- MIC [2]: 0.25 µg/mL (≈ 0.662 µM)
- MIC [3]: 0.5 µg/mL (≈ 1.32 µM)
- MIC [4]: 0.5 µg/mL (≈ 1.32 µM)
- MIC [5]: 0.12 µg/mL (≈ 0.318 µM)
- MIC [6]: 0.5 µg/mL (≈ 1.32 µM)
- MIC [7]: 0.5 µg/mL (≈ 1.32 µM)
- MIC [8]: 0.25 µg/mL (≈ 0.662 µM)
- MIC [9]: 0.5 µg/mL (≈ 1.32 µM)
- MIC [10]: 0.5 µg/mL (≈ 1.32 µM)
- MIC [11]: 0.5 µg/mL (≈ 1.32 µM)
- MIC [12]: 0.5 µg/mL (≈ 1.32 µM)
- MIC [13]: 2 µg/mL (≈ 5.3 µM)
- MIC [14]: 4 µg/mL (≈ 10.6 µM)
- MIC [15]: 4 µg/mL (≈ 10.6 µM)
- MIC [20]: > 32 µg/mL
- MIC [21]: > 32 µg/mL
- MIC [22]: > 32 µg/mL
- MIC [23]: > 32 µg/mL
